Measurements: patent US12780800B1, “Triazole-pyridinyl substituted azacyclohexyl acetic acid compounds as LPA receptor antagonists” (Viva Star Biosciences Limited, priority 2021, dated 2022)

Target: T1, LPA1 (Homo sapiens, UniProt Q92633)
T1 construct: ProLink (PK) beta-galactosidase enzyme-fragment tag; host or cells: CHO-K1
Assay: LPA1 calcium flux assay (LPA1 functional antagonist assay)
Format: cell-based
Details: PathHunter CHO-K1 EDG2 β-Arrestin cell line; calcium indicator dye; stimulated with EC80 concentration of LPA; FLIPR Tetra
In short: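 The LPA1 antagonist readout was intracellular calcium flux, and IC50 values were calculated from it. Plates stood 30 min at RT after compound addition. Cells, grown overnight, had first taken up calcium dye over 45 min at 37 °C.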

T1 sequence (Q92633 whole entry, the tested form may be a part): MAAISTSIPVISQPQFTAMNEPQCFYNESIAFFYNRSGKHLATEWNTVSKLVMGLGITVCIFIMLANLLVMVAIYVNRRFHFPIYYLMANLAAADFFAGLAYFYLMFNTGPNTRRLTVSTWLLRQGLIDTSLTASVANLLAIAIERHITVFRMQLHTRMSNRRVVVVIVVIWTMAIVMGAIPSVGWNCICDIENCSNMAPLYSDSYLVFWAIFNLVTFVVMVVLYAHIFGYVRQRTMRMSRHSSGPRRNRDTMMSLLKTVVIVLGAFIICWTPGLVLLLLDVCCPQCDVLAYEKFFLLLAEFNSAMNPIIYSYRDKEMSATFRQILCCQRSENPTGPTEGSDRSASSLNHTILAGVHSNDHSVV

Row | IC50 [nM] | Structure (SMILES)
1 | > 5000 | CCCN(C)C(=O)OCc1c(-c2ccc(CN3CCOC(C(=O)O)C3)c(C)n2)nnn1C (stereo not drawn) [Example 166, 4-((2-methyl-6-(1-methyl-5-(((methyl (propyl)carbamoyl)oxy)methyl)-1H-1,2,3-triazol-4-yl)pyridin-3-yl)methyl)morpholine-2-carboxylic acid]
2 | < 100 | Cn1nnc(-c2ccc(N3CCC[C@H](CC(=O)O)C3)c(C(F)F)n2)c1Cn1ncc(CC2CC2)n1 [Example 167, (R)-2-(1-(6-(5-((4-(cyclopropylmethyl)-2H-1,2,3-triazol-2-yl)methyl)-1-methyl-1H-1,2,3-triazol-4-yl)-2-(difluoromethyl)pyridin-3-yl)piperidin-3-yl)acetic acid]
3 | < 100 | Cn1nnc(-c2ccc(N3CCC[C@H](CC(=O)O)C3)c(C(F)F)n2)c1Cn1nncc1CC1CC1 [Example 168, (R)-2-(1-(6-(5-((5-(cyclopropylmethyl)-1H-1,2,3-triazol-1-yl)methyl)-1-methyl-1H-1,2,3-triazol-4-yl)-2-(difluoromethyl)pyridin-3-yl)piperidin-3-yl)acetic acid]
4 | 100 to 500 | Cn1nnc(-c2ccc(N3CCC[C@H](CC(=O)O)C3)c(C(F)F)n2)c1Cn1cc(CC2CC2)nn1 [Example 169, (R)-2-(1-(6-(5-((4-(cyclopropylmethyl)-1H-1,2,3-triazol-1-yl)methyl)-1-methyl-1H-1,2,3-triazol-4-yl)-2-(difluoromethyl)pyridin-3-yl)piperidin-3-yl)acetic acid]
5 | 500 to 5000 | CCCN(C)C(=O)OCc1c(-c2ccc(N3CCOC(CC(=O)O)C3)c(CC)n2)nnn1C (stereo not drawn) [Example 170, 2-(4-(2-ethyl-6-(1-methyl-5-(((methyl(propyl)carbamoyl)oxy)methyl)-1H-1,2,3-triazol-4-yl)pyridin-3-yl)morpholin-2-yl)acetic acid]
6 | < 100 | CCc1nc(-c2nnn(C)c2COc2nccc(C3CCC3)n2)ccc1N1CCOC(CC(=O)O)C1 (stereo not drawn) [Example 171, 2-(4-(6-(5-(((4-cyclobutylpyrimidin-2-yl)oxy)methyl)-1-methyl-1H-1,2,3-triazol-4-yl)-2-ethylpyridin-3-yl)morpholin-2-yl)acetic acid]
7 | 500 to 5000 | CCCc1ccc(=O)n(Cc2c(-c3ccc(N4CCO[C@H](CC(=O)O)C4)c(CC)n3)nnn2C)c1 [Example 172, 2-[(2R)-4-(2-ethyl-6-{1-methyl-5-[(2-oxo-5-propyl-1,2-dihydropyridin-1-yl)methyl]-1H-1,2,3-triazol-4-yl}pyridin-3-yl)morpholin-2-yl]acetic acid]

More lines, now with the values behind:

Row | Structure (SMILES) | IC50 [nM]
8 | CCc1nc(-c2cnn(C)c2Cn2nncc2CC2CC2)ncc1N1C[C@@H](CC(=O)O)CC(F)(F)C1 [Example 134, (S)-2-(1-(2-(5-((5-(cyclopropylmethyl)-1H-1,2,3-triazol-1-yl)methyl)-1-methyl-1H-pyrazol-4-yl)-4-ethylpyrimidin-5-yl)-5,5-difluoropiperidin-3-yl)acetic acid] | 100 to 500
9 | CCc1nc(-c2cnn(C)c2Cn2cc(CC3CC3)nn2)ncc1N1C[C@@H](CC(=O)O)CC(F)(F)C1 [Example 135, (S)-2-(1-(2-(5-((4-(cyclopropylmethyl)-1H-1,2,3-triazol-1-yl)methyl)-1-methyl-1H-pyrazol-4-yl)-4-ethylpyrimidin-5-yl)-5,5-difluoropiperidin-3-yl)acetic acid] | > 5000
10 | CCc1nc(-c2cnn(C)c2Cn2ncc(CC3CC3)n2)ncc1N1C[C@@H](CC(=O)O)CC(F)(F)C1 [Example 136, (S)-2-(1-(2-(5-((4-(cyclopropylmethyl)-2H-1,2,3-triazol-2-yl)methyl)-1-methyl-1H-pyrazol-4-yl)-4-ethylpyrimidin-5-yl)-5,5-difluoropiperidin-3-yl)acetic acid] | 100 to 500
11 | CCc1nc(-c2nnn(C)c2Cn2nnc(CC3CC3)n2)ccc1N1C[C@@H](CC(=O)O)CC(F)(F)C1 [Example 137, 2-[(3S)-1-[6-(5-{[5-(cyclopropylmethyl)-2H-1,2,3,4-tetrazol-2-yl]methyl}-1-methyl-1H-1,2,3-triazol-4-yl)-2-ethylpyridin-3-yl]-5,5-difluoropiperidin-3-yl]acetic acid] | 100 to 500
12 | CCc1nc(-c2nnn(C)c2Cn2nnnc2CC2CC2)ccc1N1C[C@@H](CC(=O)O)CC(F)(F)C1 [Example 138, 2-[(3S)-1-[6-(5-{[5-(cyclopropylmethyl)-1H-1,2,3,4-tetrazol-1-yl]methyl}-1-methyl-1H-1,2,3-triazol-4-yl)-2-ethylpyridin-3-yl]-5,5-difluoropiperidin-3-yl]acetic acid] | 100 to 500
13 | CCCN(C)C(=O)OCc1c(-c2ccc(N3C[C@@H](CC(=O)O)CC(F)(F)C3)c(C)n2)nnn1C [Example 139, (S)-2-(5,5-difluoro-1-(2-methyl-6-(1-methyl-5-(((methyl(propyl)carbamoyl)oxy)methyl)-1H-1,2,3-triazol-4-yl)pyridin-3-yl)piperidin-3-yl)acetic acid] | 100 to 500
14 | Cc1nc(-c2nnn(C)c2COC(=O)N(C)CC2CC2)ccc1N1C[C@@H](CC(=O)O)CC(F)(F)C1 [Example 140, (S)-2-(1-(6-(5-((((cyclopropylmethyl)(methyl)carbamoyl)oxy)methyl)-1-methyl-1H-1,2,3-triazol-4-yl)-2-methylpyridin-3-yl)-5,5-difluoropiperidin-3-yl)acetic acid] | 100 to 500
15 | CCc1nc(-c2nnn(C)c2COC(=O)N(C)CC2CC2)ccc1N1C[C@@H](CC(=O)O)CC(F)(F)C1 [Example 141, (S)-2-(1-(6-(5-((((cyclopropylmethyl)(methyl)carbamoyl)oxy)methyl)-1-methyl-1H-1,2,3-triazol-4-yl)-2-ethylpyridin-3-yl)-5,5-difluoropiperidin-3-yl)acetic acid] | 100 to 500
16 | Cc1nc(-c2nnn(C)c2COC(=O)N(C)C2CCC2)ccc1N1C[C@@H](CC(=O)O)CC(F)(F)C1 [Example 142, (S)-2-(1-(6-(5-(((cyclobutyl(methyl)carbamoyl)oxy)methyl)-1-methyl-1H-1,2,3-triazol-4-yl)-2-methylpyridin-3-yl)-5,5-difluoropiperidin-3-yl)acetic acid] | 100 to 500
17 | CCc1nc(-c2nnn(C)c2COC(=O)N(C)C2CCC2)ccc1N1C[C@@H](CC(=O)O)CC(F)(F)C1 [Example 143, (S)-2-(1-(6-(5-(((cyclobutyl(methyl)carbamoyl)oxy)methyl)-1-methyl-1H-1,2,3-triazol-4-yl)-2-ethylpyridin-3-yl)-5,5-difluoropiperidin-3-yl)acetic acid] | < 100
18 | CCCN(C)C(=O)OCc1c(-c2ccc(N3CCC[C@H](CC(=O)O)C3)c(C)n2)nnn1C [Example 144, (R)-2-(1-(2-methyl-6-(1-methyl-5-(((methyl(propyl)carbamoyl)oxy)methyl)-1H-1,2,3-triazol-4-yl)pyridin-3-yl)piperidin-3-yl)acetic acid] | 500 to 5000
19 | CCCN(C)C(=O)OCc1c(-c2ccc(N3CCC[C@H](CC(=O)O)C3)c(CC)n2)nnn1C [Example 145, (R)-2-(1-(2-ethyl-6-(1-methyl-5-(((methyl(propyl)carbamoyl)oxy)methyl)-1H-1,2,3-triazol-4-yl)pyridin-3-yl)piperidin-3-yl)acetic acid] | 500 to 5000
20 | CCCN(C)C(=O)OCc1c(-c2ccc(N3C[C@@H](CC(=O)O)CC(F)(F)C3)c(CC)n2)nnn1C [Example 146, (S)-2-(1-(2-ethyl-6-(1-methyl-5-(((methyl(propyl)carbamoyl)oxy)methyl)-1H-1,2,3-triazol-4-yl)pyridin-3-yl)-5,5-difluoropiperidin-3-yl)acetic acid] | > 5000
21 | CCc1nc(-c2nnn(C)c2CNc2nccc(C3CC3)n2)ccc1CN1CC(C(=O)O)CC(F)(F)C1 (stereo not drawn) [Example 151, 1-((6-(5-(((4-cyclopropylpyrimidin-2-yl)amino)methyl)-1-methyl-1H-1,2,3-triazol-4-yl)-2-ethylpyridin-3-yl)methyl)-5,5-difluoropiperidine-3-carboxylic acid] | 500 to 5000
